For experiment [1], the system named is A549. Put plainly: Anticancer activity against human A549 cells assessed as inhibition of cell growth at 3 uM incubated for 48 hrs by MTT assay relative to control. The class given is functional. On the set-up: scale not given: the % may be the effect or the level left. Background: Tetrazolium assays rely on reduction of a dye to a coloured formazan, in cell work by metabolically active cells.

In a further experiment the test system is PC-3. Put plainly: Anticancer activity against human PC-3 cells assessed as inhibition of cell growth at 3 uM incubated for 48 hrs by MTT assay relative to control. Set-up: scale not given: the % may be the effect or the level left. The class given is functional.
The next experiment has as its target Cholinesterase (Equus caballus, UniProt P81908). The experiment in a line: Inhibition of equine serum BChE using butyrylthiocholine iodide as substrate measured after 15 mins by Ellman's method.
The subject of experiment [2] is Mus musculus. The experiment in a line: Anticonvulsant activity in ip dosed scPTZ induced Kunming mouse seizure model. The class given is functional.
The subject of experiment [3] is Mus musculus. Put plainly: Anticonvulsant activity in ip dosed MES induced Kunming mouse seizure model. In kind it is functional.
The subject of experiment [4] is MCF7. The experiment in a line: Cytotoxicity against human MCF7 cells assessed as reduction in cell growth. The class given is functional, cell-based.
Experiment [5] is described as follows: Inhibition of Escherichia coli beta-glucuronidase.
Experiment [6] can be described thus: Antioxidant activity assessed as ABTS radical scavenging activity after 30 mins by spectrophotometric analysis. The class given is functional.
Experiment [7] concerns MCF7. The experiment in a line: Antiproliferative activity against human MCF7 cells assessed as reduction in cell viability incubated for 72 hrs by MTT assay. The class given is functional, cell-based. The following applies: MCF7, 72 h.
In experiment [8] the test system is A549. The experiment in a line: Antiproliferative activity against human A549 cells assessed as reduction in cell viability by MTT assay. The class given is functional, cell-based.
In experiment [9] the test system is A549. Put plainly: Antiproliferative activity against human A549 cells. In kind it is functional, cell-based.
Experiment [10] concerns MCF7. Put plainly: Anticancer activity against human MCF7 cells assessed as reduction in cell growth incubated for 24 hrs by MTT assay. The class given is functional, cell-based. The following applies: MCF7, 24 h.
The subject of experiment [11] is MCF7. The experiment in a line: Anticancer activity against human MCF7 cells assessed as reduction in cell growth measured after 3 days by MTT assay. In kind it is functional, cell-based. The following applies: MCF7, 72 h.
The nature of experiment [12]: Antioxidant activity assessed as DPPH radical scavenging activity at 10 ug/ml. As to conditions: dose 10.0 µg/ml. The class given is functional. In general terms: DPPH is a stable violet radical that fades when it is reduced.
Experiment [13] concerns A549. The experiment in a line: Antiproliferative activity against human A549 cells assessed as reduction in cell viability incubated for 72 hrs by MTT assay. In kind it is functional, cell-based. As to conditions: A549, 72 h.
The test system of the next experiment is WI-38. The experiment in a line: Antiproliferative activity against human WI-38 cells assessed as reduction in cell viability. The class given is functional, cell-based.
Another experiment deals with NCI-H23. Put plainly: Antiproliferative activity against human NCI-H23 cells assessed as reduction in cell viability incubated for 72 hrs by MTT assay. In kind it is functional, cell-based. The following applies: NCI-H23, 72 h.
The test system of experiment [14] is A549. Put plainly: Antiproliferative activity against human A549 cells assessed as reduction in cell viability measured for 24 hrs by MTT assay. As to conditions: A549, 24 h.
In a further experiment the test system is HepG2. The experiment in a line: Antiproliferative activity against human HepG2 cells assessed as reduction in cell viability measured for 24 hrs by MTT assay. As to conditions: HepG2, 24 h.
In experiment [15] the target is T1, Retinoic acid receptor RXR-alpha (Homo sapiens, UniProt P19793).
T1 sequence (P19793 whole entry): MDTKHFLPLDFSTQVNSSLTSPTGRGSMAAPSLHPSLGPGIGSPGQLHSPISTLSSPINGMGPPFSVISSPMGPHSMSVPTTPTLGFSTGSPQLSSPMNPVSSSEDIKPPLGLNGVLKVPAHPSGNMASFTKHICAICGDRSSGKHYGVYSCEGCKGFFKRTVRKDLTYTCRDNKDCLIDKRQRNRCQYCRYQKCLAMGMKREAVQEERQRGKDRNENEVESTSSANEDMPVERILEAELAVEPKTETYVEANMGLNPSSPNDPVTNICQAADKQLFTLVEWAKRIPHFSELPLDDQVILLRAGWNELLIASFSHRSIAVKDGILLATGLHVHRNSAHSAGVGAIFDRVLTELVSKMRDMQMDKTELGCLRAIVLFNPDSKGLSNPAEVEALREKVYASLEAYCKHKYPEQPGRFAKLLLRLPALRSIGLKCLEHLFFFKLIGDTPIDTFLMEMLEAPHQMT
The experiment in a line: Antagonist activity at RXRalpha (unknown origin) by Alpha Screen assay. (In general: Bead proximity is the source of the signal in Alpha formats.)

The subject of experiment [16] is MCF7. The experiment in a line: Antiproliferative activity against human MCF7 cells assessed as reduction in cell viability measured for 72 hrs by MTT assay. In kind it is functional, cell-based. As to conditions: MCF7, 72 h.
A further experiment concerns MDA-MB-231. Put plainly: Antiproliferative activity against human MDA-MB-231 cells. The class given is functional, cell-based.
Experiment [17] deals with MCF7. The experiment in a line: Antiproliferative activity against human MCF7 cells. In kind it is functional, cell-based.

The results in this text go back to ChEMBL document CHEMBL6127051, “Hydrazinecarboxamides: Comprehensive review of their anticancer, anticonvulsive, anti-inflammatory, enzyme inhibition, antioxidant and other activities” (Eur J Med Chem, 2024).

Sequence of Cholinesterase (P81908 whole entry): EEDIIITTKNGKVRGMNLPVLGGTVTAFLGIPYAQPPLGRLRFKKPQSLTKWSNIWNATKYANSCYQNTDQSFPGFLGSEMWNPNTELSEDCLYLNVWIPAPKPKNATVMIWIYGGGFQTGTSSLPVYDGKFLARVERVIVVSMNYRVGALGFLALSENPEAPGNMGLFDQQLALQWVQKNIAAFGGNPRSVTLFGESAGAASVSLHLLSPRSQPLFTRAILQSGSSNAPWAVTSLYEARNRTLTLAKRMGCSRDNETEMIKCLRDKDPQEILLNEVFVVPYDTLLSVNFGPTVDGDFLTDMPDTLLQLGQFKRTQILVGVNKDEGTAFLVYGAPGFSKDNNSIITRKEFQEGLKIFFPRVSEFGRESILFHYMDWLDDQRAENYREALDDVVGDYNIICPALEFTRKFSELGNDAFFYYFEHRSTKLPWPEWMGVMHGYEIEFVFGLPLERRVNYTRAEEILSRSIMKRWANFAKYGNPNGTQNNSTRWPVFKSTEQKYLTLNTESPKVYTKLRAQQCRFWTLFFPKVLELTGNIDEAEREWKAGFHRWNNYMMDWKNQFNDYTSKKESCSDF

In the case of `COc1ccc(C(C)(C)C)cc1NC(=O)NNC1=NS(=O)(=O)c2ccccc2N1c1ccccc1`, the Activity in the experiment with A549 [1] is reported as 99%; with PC-3 it was “>=71%”.
What is called IC50 is the midpoint of a concentration-inhibition curve. As for `CNC(=O)NNC(=O)c1ccc(Cl)cc1`, at Cholinesterase, the IC50 was determined as 22000 nM.
The term ED50 denotes the dose that gives a 50% effect, or the effect in half of the subjects. Consider `CCOC(=O)C1(NC(=O)NNS(=O)(=O)c2ccccc2Cl)CC1(C)C` (stereo unspecified), for which the ED50 in the experiment on Mus musculus [2] and with Mus musculus [3] was 82.6 mg/kg each time.
On to `O=C(NNC(=O)n1nnc2ccccc21)NC(c1ccccc1)c1ccccc1`, for which the IC50 in the experiment on MCF7 [4] was determined as 79000 nM.
In experiment [5], `COc1ccc(NC(=O)NNC(=O)CCc2ccccc2OC)cc1` showed an IC50 of 15500 nM.
As to `O=C(Cn1c(Cc2ccccc2)nc2ccccc21)NNC(=O)Nc1ccccc1`, the Activity in experiment [6] is 126%.
Compound `CC(C)N1C(=O)C(=O)N(NCC(=O)N(c2ccccc2)C2(C(N)=O)CCCC2)C1=O` had an ED50 with Mus musculus [3] of 34.4 mg/kg.
Take `COc1cc(NC(C)CCCNC(=O)NNC(=O)NC2CCCC2)c2ncccc2c1` (stereo unspecified): the IC50 in the experiment with MCF7 [7] was 1000 nM; in the experiment with A549 [8], 4000 nM; with A549 [9], 1500 nM.
`COc1cc(C(=O)NN2C(=O)C(=O)N(C(C)C)C2=O)cc2c1OCCO2` displayed an ED50 with Mus musculus [3] of 7.6 mg/kg.
`NNC(=O)Nc1nc2ccccc2o1`: the IC50 in the experiment with MCF7 [10] is 218000 nM.
As to `COc1cc(NC(C)CCCNC(=O)NNC(=O)/C=C/c2ccc3c(c2)OCO3)c2ncccc2c1` (stereo unspecified), the IC50 in the experiment with MCF7 [11] was determined as 30 nM.
As for `COc1ccc(/C=C2\N=C(C)N(NC(=O)N3c4ccccc4C=Cc4ccccc43)C2=O)c(OC)c1`, the Activity in experiment [12] came out at 73.9%.
`COc1cccc(NC(=O)NNC(=O)c2oc3ccccc3c2CN2CCOCC2)c1`: the IC50 came to 1500 nM with A549 [13], 12900 nM with WI-38 and 1490 nM with NCI-H23.
As to `O=C(NNC(=O)n1nnc2ccccc21)NC1CCCCC1`, the IC50 in the experiment on MCF7 [4] worked out at 79000 nM.
A word on the EC50: it is the concentration needed to bring the measured effect to its halfway point. On to `O=C(NCCc1ccccc1)NNC(=O)c1ccc(Nc2nccc(-c3ccncc3)n2)cc1`, for which the figures for the IC50 in the experiment on A549 [14] and in the experiment with HepG2 were 8390 nM and 2170 nM, respectively. In experiment [15], the response was half-maximal at 1050 nM (EC50).
Turning to `CCCCCCCCCCCCCNC(=O)NNC(=O)c1cccc(Br)c1`, at Cholinesterase, half-maximal inhibition (IC50) required 22000 nM.
`CNC(=O)c1cc(Oc2ccc(NC(=O)Nc3ccc(Cl)c(C(F)(F)F)c3)cc2)ccn1` [SORAFENIB]: in the experiment with HepG2, the IC50 was found to be 16900 nM.
As to `COc1cc(NC(C)CCCNC(=O)NNC(=O)NC(c2ccccc2)c2ccccc2)c2ncccc2c1` (stereo unspecified), the IC50 with MCF7 [7] was determined as 1000 nM; in the experiment with A549 [8], 4000 nM; with A549 [9] it was 1500 nM.
Consider `O=C(NNC(=O)c1cc2ccccc2[nH]1)Nc1ccc(Cl)c(C(F)(F)F)c1`, for which, in the experiment on MCF7 [16], the half-inhibitory concentration (IC50) worked out at 1200 nM.
Turning to `O=C(NNC(=O)c1cc2ccccc2[nH]1)NC1CCCCC1`, the IC50 in the experiment on MCF7 [16] was 1200 nM.
As for `COc1cc(NC(C)CCCNC(=O)NNC(=O)NC(=O)c2ccccc2)c2ncccc2c1` (stereo unspecified), the IC50 in the experiment with MCF7 [7] worked out at 1000 nM; in the experiment on A549 [8] it was 4000 nM; with A549 [9] it was 1500 nM.
Regarding `Cc1ccc(NC(=O)NNC(=O)c2cc3ccccc3[nH]2)cc1`, the figures for the IC50 in the experiment on MDA-MB-231, with MCF7 [16] and in the experiment with MCF7 [17] were 9030 nM, 1200 nM and 9030 nM, respectively.
As to `COc1cc(/C=C2\N=C(C)N(NC(=O)N3c4ccccc4C=Cc4ccccc43)C2=O)ccc1O`, the Activity in experiment [12] is 73.9%.
`COc1cc(NC(C)CCCNC(=O)NNC(=O)/C=C/c2ccc(OC)c(OC)c2)c2ncccc2c1` (stereo unspecified): the IC50 in the experiment with MCF7 [11] was determined as 30 nM.
For the compound `O=C(NNC(=S)NCc1ccccc1)c1ccc(Nc2nccc(-c3ccccn3)n2)cc1`, the IC50 with A549 [14] was determined as 8390 nM; in the experiment with HepG2 it was 2170 nM. This compound also had an EC50 in experiment [15] of 1050 nM.
As for `O=C(NNC(=O)n1nnc2ccccc21)NC1CCCC1`, in the experiment with MCF7 [4], the IC50 turned out to be 79000 nM.
Turning to `COc1cc(NC(C)CCCNC(=O)NNC(=O)/C=C/c2cc(C(F)(F)F)cc(C(F)(F)F)c2)c2ncccc2c1` (stereo unspecified), the IC50 in the experiment on MCF7 [11] amounted to 30 nM.
Consider `O=C(NNC1=NS(=O)(=O)c2ccccc2N1c1ccccc1)Nc1cc(C(F)(F)F)cc(C(F)(F)F)c1`, for which the values for the Activity in the experiment with A549 [1] and with PC-3 were 99% and “>=71%”, respectively.
On to `COc1cc(NC(C)CCCNC(=O)NNC(=O)/C=C/c2ccccc2F)c2ncccc2c1` (stereo unspecified), for which the IC50 in the experiment on MCF7 [11] was determined as 30 nM.
